Test results from patent US9221834B2 (Merck Sharp & Dohme Corp., priority 2010, dated 2015).

Assays:
[1] = target: T1, endogenous CETP from serum (Homo sapiens, UniProt P11597); assay: RTA assay using endogenous CETP from serum (95% RTA); format: biochemical; details: RTA assay in 95% human serum, labeled with an asterisk
T1 construct: For the transfer assay using endogenous CETP from serum (95% RTA); from tissue; host or cells: human serum
T1 sequence (P11597 18-493): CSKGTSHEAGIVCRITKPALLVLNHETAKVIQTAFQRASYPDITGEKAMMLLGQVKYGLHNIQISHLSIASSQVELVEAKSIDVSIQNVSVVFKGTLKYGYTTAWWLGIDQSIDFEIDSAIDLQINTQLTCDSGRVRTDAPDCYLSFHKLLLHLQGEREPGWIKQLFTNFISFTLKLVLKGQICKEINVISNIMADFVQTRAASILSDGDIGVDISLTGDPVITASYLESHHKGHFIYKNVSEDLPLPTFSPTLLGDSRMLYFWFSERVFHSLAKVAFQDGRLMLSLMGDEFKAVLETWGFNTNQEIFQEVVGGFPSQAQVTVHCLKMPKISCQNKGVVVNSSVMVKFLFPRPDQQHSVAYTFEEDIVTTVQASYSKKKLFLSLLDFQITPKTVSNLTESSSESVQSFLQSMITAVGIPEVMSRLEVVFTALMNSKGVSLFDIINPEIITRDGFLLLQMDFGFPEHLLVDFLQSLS
Method: In Vitro Radioactive Assays of CETP-Catalyzed CE and TG Transfer (RTA Assay)
Reagents and sources are: [3H] cholesteryl oleate (GE #TRK.886), [3H] Triolein (Perkin-Elmer NET-431), Butylated hydroxyl toluene (Aldrich, #D4740-4), DOPC (Sigma, #P6354), Sodium Bromide (Fisher scientific #5255-500), PEG 8000 (Fisher, #BP233-1), and human HDL (Intracel Corp #RP-036).
An in vitro assay for determining IC50's to identify compounds that inhibit CETP transfer activity is performed based on a modification of a published method (Morton and Zilversmit, (1981) A plasma inhibitor of triglyceride and cholesteryl ester transfer activities, J. Biol. Chem. 256(23), 11992-11995). The ability of inhibitors to alter CETP activity is performed using two different assays: one using recombinant CETP and one using an edogenous plasma source of CETP. Both assays measure the transfer of [3H] cholesteryl oleate or [3H]triolein from exogenous LDL to HDL.
Radiolabeled donor particles are generated by first combining 100 μl of 200 μM butylated hydroxyl toluene in CHCl3, 216 μL of 21.57 mM DOPC in EtOH, and either 500 μCi [3H]-triolein (Perkin Elmer #NET-431) or 500 μCi [3H]-cholesteryl oleate (GE #TRK886) in a glass tube. Reagents are mixed, dried under nitrogen, and then resuspended in 2 mL of 50 mM Tris, 27 μM EDTA at pH 7.4. After a brief vortex, the solution is sonicated until clear and mixed with 20 mL of fresh human serum. The mixture is incubated overnight at 37° C. The [3H] labeled LDL substrate is separated at 1.063 g/ml density by sequential ultracentrifugal flotation in NaBr according to the method by (Havel, Eder et al. 1955; Chapman, Goldstein et al. 1981). Once isolated the particles are dialyzed 3× in CETP buffer (50 mM Tris, pH 7.4, 100 mM NaCl, 1 mM EDTA). Human HDL is purchased from Intracel and used as the acceptor particles.
Transfer assays are performed in a 96-well v-bottom polypropylene plate. […] After mixing, plates are counted by liquid scintillation. […]

[2] = torcetrapib and atorvastatin concomitantly compared with atorvastatin alone; cited from earlier work
CETP = target: T2, CETP (Homo sapiens, UniProt P11597); assay: Scintillation Proximity Assay (SPA) for CETP Activity; format: biochemical
T2 construct: made in house
T2 sequence (P11597 18-493): T1 sequence (P11597 18-493)
Method: Protocol: Scintillation Proximity Assay (SPA) for CETP Activity
First low density lipoprotein (LDL) (Meridian) was biotinylated by incubating LDL with biotin for 1 hour on ice, after which it was dialyzed to remove free biotin. Then compounds at varying concentrations were incubated with 15 nM CETP (reagent production group, In Vitro Pharmacology, MRL Rahway) and 50 ug/ml of the biotinylated LDL in 50 mM HEPES, 150 mM NaCl, pH 7.4, for 1 hour at 37° C. The reaction was started by adding ^3H-cholesterol ester high density lipoprotein (HDL) (American Radiochemicals Corp) at a concentration of ˜0.6 nM. The reaction proceeded for 2 hours at 37° C., after which time it was quenched by the addition of 12% acetic acid. PVT streptavadin-coated scintillation proximity beads, which had been brought to room temperature, were then added at a concentration of 4 mg/ml. The assay was then mixed and counted after one half hour in a Microbeta plate reader.

## Cc1cc(C(=O)O)ccc1-c1cc(-c2cnc(N3CCC3)nc2CN2C(=O)O[C@H](c3cc(C(F)(F)F)cc(C(F)(F)F)c3)[C@@H]2C)c(F)cc1F [Example 170]
[1]
  IC50: 110 nM

## COc1ccc(CCC(=O)O)cc1-c1cnc(N2CCC2)nc1CN1C(=O)O[C@H](c2cccc(F)c2)[C@@H]1C [Example 277]
[1]
  IC50: 35 nM

## CCOC(=O)N1c2ccc(C(F)(F)F)cc2[C@@H](N(Cc2cc(C(F)(F)F)cc(C(F)(F)F)c2)C(=O)OC)C[C@H]1CC [torcetrapib, Torcetrapib]
[2]
  incidence of mortality: higher incidence of mortality

## COC(=O)c1ccc(-c2cc(-c3cnc(N4CCC4)nc3CN3C(=O)O[C@H](c4cc(C(F)(F)F)cc(C(F)(F)F)c4)[C@@H]3C)c(F)cc2F)c(C)c1 [Example 142]
[1]
  IC50: 145 nM

## COc1cc(F)c(C(C)C)cc1-c1ccc(-n2cccn2)nc1CN1C(=O)O[C@H](c2cc(C(F)(F)F)cc(C(F)(F)F)c2)[C@@H]1C [Example 299, (4S,5R)-5-[3,5-bis(trifluoromethyl)phenyl]-3-({3-[4-fluoro-2-methoxy-5-(propan-2-yl)phenyl]-6-(1H-pyrazol-1-yl)pyridin-2-yl}methyl)-4-methyl-1,3-oxazolidin-2-one]
CETP
  IC50: 55.8 nM
